Source: PubChem BioAssay (NCI)
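Step 1: Grow cells in 96-well plates. Step 2: Expose to compound for 48 hours at 5 concentrations. Step 3: Interpolate endpoints linearly; if unreached, use highest concentration. GI50: concentration for 50% inhibition of growth. TGI is the concentration that stops growth completely.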

Experiments:
Assay in all cases: growth of human tumour cells (NCI), 48 h
[1] = test system: EKVX NSCLC
[2] = test system: HCT-116 colon
[3] = test system: HOP-62 NSCLC
[4] = test system: MCF7 breast
[5] = test system: OVCAR-3 ovarian
[6] = test system: OVCAR-5 ovarian
[7] = test system: SK-MEL-5 melanoma
[8] = test system: SK-OV-3 ovarian
[9] = test system: U251 CNS
[10] = test system: UACC-257 melanoma
[11] = test system: UO-31 renal
[12] = test system: CCRF-CEM leukemia
[13] = test system: SNB-75 CNS

| Compound | TGI [1] [µM] | TGI [2] [µM] | TGI [3] [µM] | TGI [4] [µM] | TGI [5] [µM] | TGI [6] [µM] | TGI [7] [µM] | TGI [8] [µM] | TGI [9] [µM] | TGI [10] [µM] | TGI [11] [µM] | TGI [12] [µM] | TGI [13] [µM] | GI50 [12] [µM] | GI50 [2] [µM] | GI50 [4] [µM] | GI50 [5] [µM] | GI50 [7] [µM] | GI50 [9] [µM] | GI50 [10] [µM] |
| --- | --- | --- | --- | --- | --- | --- | --- | --- | --- | --- | --- | --- | --- | --- | --- | --- | --- | --- | --- | --- |
| COP(=O)(OC)C(O)/C=C/c1ccco1 (centres undefined) | > 100 | > 100 | > 100 | > 100 | > 100 | > 100 | > 100 | > 100 | > 100 | > 100 | > 100 |  |  |  |  |  |  |  |  |  |
| NC(CCCCN=Cc1nc(-c2ccccc2)oc1O)C(=O)O (centres undefined) | > 100 | > 100 | > 100 |  | > 100 | > 100 | > 100 | > 100 | > 100 | > 100 | > 100 | > 100 | > 100 |  |  |  |  |  |  |  |
| Cc1ccc([N+](=O)[O-])cc1NC(=O)C(=O)Cc1cc(=O)oc2cc(O)ccc12 | > 100 | 47.5 | > 100 |  | > 100 | > 100 | > 100 | > 100 | > 100 | > 100 | > 100 | > 100 | > 100 |  |  |  |  |  |  |  |
| COc1cc2c(oc(=O)c3cc4ccoc4c(OC)c32)c2cccc(O)c12 | > 100 | > 100 | > 100 |  | > 100 | > 100 | > 100 | > 100 | > 100 | > 100 | > 100 | > 100 | > 100 |  |  |  |  |  |  |  |
| CC(C)C(Sc1nc(-c2ccccc2)c(-c2ccccc2)[nH]1)C(=O)N/N=C/c1ccc([N+](=O)[O-])cc1 (centres undefined) | 65.6 | 28 | 37.8 |  | 21.3 | 44.8 | 21.3 | 48.2 | 29.8 | 28.8 | 26.5 | 28.2 | 42.3 |  |  |  |  |  |  |  |
| COc1cc(/C=C/c2sc3ccccc3[n+]2C)ccc1N(C)C | > 100 | 17.9 | 32.8 | 19.5 | 13 | 40.5 | 18.5 | 54.8 | 21.8 | 22.9 |  | 13.9 |  | 3.76 | 6.05 | 6.78 | 3.15 | 5.49 | 8.06 | 8.32 |
| Cc1ccc(S(=O)(=O)N/N=C/c2oc(-c3ccccc3Cl)c(-c3ccccc3Cl)c2[N+](=O)[O-])cc1 | > 100 | 46.6 | 43.5 |  | > 100 | 34.2 | 43.1 | > 100 |  | > 100 | 36 | > 100 |  |  |  |  |  |  |  |  |
| CCN(CC)CCNc1ccc2ncn3c4c(OC)cccc4c(=O)c1c23 | 17.7 | 10.1 | 98 |  | 50.9 |  | 13.3 | 24 | 19.3 | 69.2 | 17.5 | 17.3 | 24.5 |  |  |  |  |  |  |  |
| CC1(C)O[C@H]2[C@@H]3N=C(c4ccccc4)O[C@@H]3C=C[C@H]2O1 | > 100 | > 100 | > 100 | > 100 | > 100 | > 100 | > 100 | > 100 | > 100 | > 100 | > 100 | > 100 |  |  |  |  |  |  |  |  |
| CCOP(=O)(OCC)/C(C#N)=C/c1ccc[nH]1 |  | > 100 | > 100 |  | > 100 | > 100 | > 100 | > 100 | > 100 | > 100 | > 100 | > 100 | > 100 |  |  |  |  |  |  |  |
| c1nc(SSc2ncnc3nc[nH]c23)c2[nH]cnc2n1 | > 100 | > 100 | > 100 |  | > 33.6 | > 65.2 | 37.6 | > 100 | > 100 | > 100 | > 100 | > 100 | > 100 |  |  |  |  |  |  |  |
| COc1ccc(CC2NCCc3cc(OC)c(OC)cc32)cc1 (centres undefined) | > 100 | > 100 | > 100 |  | > 100 | > 100 | > 100 | > 100 | > 100 | > 100 | > 100 | > 100 | > 100 |  |  |  |  |  |  |  |
| Cc1nc(N)c(N2CCN(Cc3ccccc3)CC2)c(=O)[nH]1 | > 100 | > 100 | > 100 | > 100 | > 100 | > 100 |  |  | > 100 | > 100 | > 100 | > 100 |  |  |  |  |  |  |  |  |
| O/N=C1/CCCCCC1NO (centres undefined) | > 100 | > 100 | > 100 | > 100 | > 100 | > 100 | > 100 | > 100 | > 100 | > 100 | > 100 |  |  |  |  |  |  |  |  |  |
| CC1CC(=O)C(CC(=O)O)C1C(C(=O)C(=O)Nc1c(C#N)cccc1[N+](=O)[O-])[N+](=O)[O-] (centres undefined) | > 100 | > 100 | > 100 |  | > 100 | > 100 | > 100 | > 100 | > 100 | > 100 | > 100 | > 100 | > 100 |  |  |  |  |  |  |  |
| CCN(CC)CCC(=O)N1CCc2c([nH]c3ccccc23)C1c1cccnc1 (centres undefined) | > 100 | > 100 | > 100 |  | > 100 | > 100 | > 100 | > 100 | > 100 | > 100 | > 100 | > 100 | > 100 |  |  |  |  |  |  |  |
| C[N+](C)(C)Cc1c(CC#N)[nH]c2ccccc12 | > 100 | > 100 | > 100 |  | > 100 | > 100 | > 100 |  | > 100 | > 100 | > 100 | > 100 | > 100 |  |  |  |  |  |  |  |
| Fc1ccc(NCn2nc(COc3ccccc3Cl)n(/N=C/c3ccc(-c4ccc(Cl)cc4Cl)o3)c2=S)cc1Cl | > 100 | > 100 | > 100 | > 100 | > 100 | > 100 | 29.9 | > 100 | 75.2 | > 100 | > 100 | > 100 |  |  |  |  |  |  |  |  |
| O=C(O)C(Cc1cnc[nH]1)N=Cc1nc(-c2ccccc2)oc1O (centres undefined) | > 100 | > 100 | > 100 |  | > 100 | > 100 | > 100 | > 100 | > 100 | > 100 | > 100 | > 100 | > 100 |  |  |  |  |  |  |  |
| Nc1ccc(C(=O)NN2C(=O)C(Cl)C2c2ccc([N+](=O)[O-])cc2)cc1 (centres undefined) | 24.4 | 4.31 | 23.2 |  | 18.4 | 41.6 | 28.8 | 29.1 | 5.28 | 31.2 | 30.8 | 14 | 24.5 |  |  |  |  |  |  |  |
| O=C1SC(c2ccccc2)(c2ccccc2)c2ccccc21 | > 100 | > 100 | > 100 |  | > 100 |  | > 100 | > 100 | > 100 | > 100 | > 100 | > 100 | > 100 |  |  |  |  |  |  |  |
| CC(=O)OC1(C#N)CC2OC1C1C2N1C(=O)OC(C)(C)C (centres undefined) | > 100 | > 100 | > 100 |  |  | > 100 | > 100 | > 100 | > 100 |  | > 100 | > 100 | > 100 |  |  |  |  |  |  |  |
| O=C(Nc1nncs1)NS(=O)(=O)n1cnc2ccccc21 | > 100 | > 100 | > 100 |  | > 100 | > 100 | > 100 | > 100 | > 100 | > 100 |  | > 100 | > 100 |  |  |  |  |  |  |  |
| Cc1cc(Cl)ccc1NC(=O)CC1SC(N)=NC1=O (centres undefined) | > 100 |  | > 100 |  | > 100 | > 100 | > 100 | > 100 | > 100 | > 100 | > 100 | > 100 | > 100 |  |  |  |  |  |  |  |
| O=c1oc2cc(O)ccc2cc1-c1nc2ccccc2s1 | 85.9 | 47 | 41.6 | 67 | 45.6 | > 100 | 28.5 | 78.1 | 55.7 | 58.2 | 47.6 | 26.8 |  |  |  |  |  |  |  |  |
| COc1ccc(N=Nc2c(C)c(C#N)c(=S)n(C3OC(COC(C)=O)C(OC(C)=O)C(OC(C)=O)C3OC(C)=O)c2-c2ccccc2)cc1 (centres undefined) |  | 15.6 | 26.5 | 17.5 | 31.1 | 30.8 |  |  | 22.6 | 75.8 | 94.7 | > 100 |  |  |  |  |  |  |  |  |
| Cc1nc2c(n1CCC(C)C)C(=O)c1ccccc1C2=O | 92 | 22.6 | 50.7 |  | 71.4 |  | 28.4 | > 100 | 60.4 | 56.7 | 86.7 | 53.9 | 63 |  |  |  |  |  |  |  |
| Cc1cc(NS(=O)(=O)c2ccc(NC(=O)c3cccc4cc5ccccc5nc34)cc2)no1 | 90.9 | 19.6 | 66.4 |  | 45.5 | 57.3 | 30.3 | > 100 | 75.5 | 87.6 | 19.2 | 54.3 | 41.9 |  |  |  |  |  |  |  |
